According to patent US20110212968A1, “PHENETHYLAMIDE DERIVATIVES AND THEIR HETEROCYCLIC ANALOGUES” (priority 2008, published 2011):

Assays:
human orexin-1 receptor = target: T1, human orexin-1 receptor (Homo sapiens, UniProt O43613); assay: Intracellular calcium measurement (FLIPR Tetra), orexin receptor antagonistic activity, OX1; format: cell-based; conditions: CHO cells expressing human orexin-1 receptor, 3 nM orexin-A, conditions B, normalized (*) using IC50 of on-plate reference compound
T1 construct: expressed in transfected cells; host or cells: CHO (Chinese hamster ovary) cells, kept under G418 selection
T1 sequence (O43613 1-425): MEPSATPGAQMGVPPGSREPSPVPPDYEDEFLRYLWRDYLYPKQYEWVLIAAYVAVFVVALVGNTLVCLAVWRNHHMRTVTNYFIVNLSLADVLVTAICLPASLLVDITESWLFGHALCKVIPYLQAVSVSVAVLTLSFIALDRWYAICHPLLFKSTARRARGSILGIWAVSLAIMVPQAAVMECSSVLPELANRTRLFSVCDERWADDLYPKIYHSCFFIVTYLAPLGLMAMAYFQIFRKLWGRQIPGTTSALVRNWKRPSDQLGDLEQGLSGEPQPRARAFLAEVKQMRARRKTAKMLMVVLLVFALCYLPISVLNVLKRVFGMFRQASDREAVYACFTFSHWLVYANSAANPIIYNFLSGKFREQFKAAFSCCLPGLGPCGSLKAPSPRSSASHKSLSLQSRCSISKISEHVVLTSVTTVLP
Summary of the method: (§1)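 Recombinant CHO cells expressing human OX1 or OX2, loaded with fluo-4 AM plus probenecid, were preincubated with antagonist 10 min, then stimulated with 3 nM human orexin-A. Peak fluorescence was compared with vehicle; IC50 derived, sometimes normalized to an on-plate reference compound; two pipetting/cell-splitting conditions were used.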

human orexin-2 receptor = target: T2, human orexin-2 receptor (Homo sapiens, UniProt O43614); assay: Intracellular calcium measurement (FLIPR Tetra), orexin receptor antagonistic activity, OX2; format: cell-based; conditions: CHO cells expressing human orexin-2 receptor, 3 nM orexin-A, conditions B, normalized (*) using IC50 of on-plate reference compound
T2 construct: expressed in transfected cells; host or cells: CHO (Chinese hamster ovary) cells, kept under G418 selection
T2 sequence (O43614 1-444): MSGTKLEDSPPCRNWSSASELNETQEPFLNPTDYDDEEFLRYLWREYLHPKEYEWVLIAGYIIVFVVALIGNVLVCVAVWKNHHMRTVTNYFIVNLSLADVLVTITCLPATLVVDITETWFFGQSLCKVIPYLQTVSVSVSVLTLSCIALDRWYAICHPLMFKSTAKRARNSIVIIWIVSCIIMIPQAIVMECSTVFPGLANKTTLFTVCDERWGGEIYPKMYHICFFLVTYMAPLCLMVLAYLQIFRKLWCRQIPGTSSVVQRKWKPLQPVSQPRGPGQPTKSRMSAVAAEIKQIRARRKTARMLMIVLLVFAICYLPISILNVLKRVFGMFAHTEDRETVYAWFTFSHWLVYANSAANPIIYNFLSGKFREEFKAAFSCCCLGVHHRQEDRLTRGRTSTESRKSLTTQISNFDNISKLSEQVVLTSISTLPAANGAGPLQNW
Summary of the method: as §1

Row | Compound | IC50 (human orexin-1 receptor) [nM] | IC50 (human orexin-2 receptor) [nM]
1 | COc1ccc(-c2sc(C)nc2C(=O)N(CCc2c[nH]c3ccc(F)cc23)CC2CC2)cc1C [Example 410, 5-(4-Methoxy-3-methyl-phenyl)-2-methyl-thiazole-4-carboxylic acid cyclopropylmethyl-[2-(5-fluoro-1H-indol-3-yl)-ethyl]-amide] | 3650 | 145
2 | Cc1nc(C(=O)N(CCc2c[nH]c3ccc(F)cc23)CC2CC2)c(-c2ccc(F)c(CO)c2)s1 [Example 418, 5-(4-Fluoro-3-hydroxymethyl-phenyl)-2-methyl-thiazole-4-carboxylic acid cyclopropylmethyl-[2-(5-fluoro-1H-indol-3-yl)-ethyl]-amide] | 148 | 13
3 | Cc1nc(C(=O)N(CCc2c[nH]c3ccc(F)cc23)CC2CC2)c(-c2ccc(C#N)c(F)c2)s1 [Example 419, 5-(4-Cyano-3-fluoro-phenyl)-2-methyl-thiazole-4-carboxylic acid cyclopropylmethyl-[2-(5-fluoro-1H-indol-3-yl)-ethyl]-amide] | 2510 | 100
4 | COc1nccc(-c2sc(C)nc2C(=O)N(CCc2c[nH]c3ccc(F)cc23)CC2CC2)c1Cl [Example 420, 5-(3-Chloro-2-methoxy-pyridin-4-yl)-2-methyl-thiazole-4-carboxylic acid cyclopropylmethyl-[2-(5-fluoro-1H-indol-3-yl)-ethyl]-amide] | 373 | 83
5 | COc1ccc(-c2sc(C)nc2C(=O)N(CCc2c[nH]c3ccc(F)cc23)CC2CC2)cn1 [Example 421, 5-(6-Methoxy-pyridin-3-yl)-2-methyl-thiazole-4-carboxylic acid cyclopropylmethyl-[2-(5-fluoro-1H-indol-3-yl)-ethyl]-amide] | 34 | 4
6 | Cc1nc(C(=O)N(CCc2c[nH]c3ccc(F)cc23)CC2CC2)c(-c2ccc(CO)nc2)s1 [Example 423, 5-(6-Hydroxymethyl-pyridin-3-yl)-2-methyl-thiazole-4-carboxylic acid cyclopropylmethyl-[2-(5-fluoro-1H-indol-3-yl)-ethyl]-amide] | 1610 | 53
7 | CSc1cncc(-c2sc(C)nc2C(=O)N(CCc2c[nH]c3ccc(F)cc23)CC2CC2)c1 [Example 424, 2-Methyl-5-(5-methylsulfanyl-pyridin-3-yl)-thiazole-4-carboxylic acid cyclopropylmethyl-[2-(5-fluoro-1H-indol-3-yl)-ethyl]-amide] | 180 | 47
8 | Cc1cncc(-c2sc(C)nc2C(=O)N(CCc2c[nH]c3ccc(F)cc23)CC2CC2)c1 [Example 426, 2-Methyl-5-(5-methyl-pyridin-3-yl)-thiazole-4-carboxylic acid cyclopropylmethyl-[2-(5-fluoro-1H-indol-3-yl)-ethyl]-amide] | 292 | 50
9 | Cc1nc(C(=O)N(CCc2c[nH]c3ccc(F)cc23)CC2CC2)c(-c2cnc3ccccc3c2)s1 [Example 428, 2-Methyl-5-quinolin-3-yl-thiazole-4-carboxylic acid cyclopropylmethyl-[2-(5-fluoro-1H-indol-3-yl)-ethyl]-amide] | 83 | 18
10 | Cc1nc(C(=O)N(CCc2c[nH]c3ccc(F)cc23)CC2CC2)c(-c2ccc3cc[nH]c3c2)s1 [Example 430, 5-(1H-Indol-6-yl)-2-methyl-thiazole-4-carboxylic acid cyclopropylmethyl-[2-(5-fluoro-1H-indol-3-yl)-ethyl]-amide] | 104 | 21
11 | Cc1cccc(-c2sc(CN)nc2C(=O)N(CCc2c[nH]c3ccc(F)cc23)CC2CC2)c1 [Example 433, 2-Aminomethyl-5-m-tolyl-thiazole-4-carboxylic acid cyclopropylmethyl-[2-(5-fluoro-1H-indol-3-yl)-ethyl]-amide] | 280 | 239
12 | Cc1ccc(-c2nccnc2C(=O)N(CCN)CCc2c[nH]c3ccc(F)cc23)cc1C [Example 434, 3-(3,4-Dimethyl-phenyl)-pyrazine-2-carboxylic acid (2-amino-ethyl)-[2-(5-fluoro-1H-indol-3-yl)-ethyl]amide] | > 5420 | 816
